Results reported in patent US10548910B2, “Amido-substituted pyridotriazine derivatives useful as HIV integrase inhibitors” (priority 2015, dated 2020).
Where two headings read alike, the source gives them in different places.

System: HIV-1
Test: HIV-1 infection assay (MT4-GFP cells, inhibition of reproductive ratio R0)
Format: cell-based
Experimental: Assessing Antiviral Potency Using An HIV-1 Infection Assay
HIV-1 replication was monitored using MT4-gag-GFP clone D3 (hereafter designate MT4-GFP), which are MT-4 cells modified to harbor a GFP reporter gene, the expression of which is dependent on the HIV-1 expressed proteins tat and rev. Productive infection of an MT4-GFP cell with HIV-1 results in GFP expression approximately 24 h post-infection.
MT4-GFP cells were maintained at 37° C./5% CO2/90% relative humidity in RPMI 1640 supplemented with 10% fetal bovine serum, 100 U/ml penicillin/streptomycin, and 400 μg/ml G418 to maintain the reporter gene. For infections, MT4-GFP cells were placed in the same medium lacking G418 and infected overnight with H9IIIB or NL4-3 virus at an approximate multiplicity of infection of 0.01 in the same incubation conditions. Cells were then washed and resuspended in either RPMI 1640 containing no serum at 1.6×10^5 cells/mL (serum free conditions), 10% normal human serum at 1.6×10^5 cells/mL (10% NHS conditions) or in 100% normal human serum at 2×10^5 cells/mL (100% NHS conditions). Compound plates were prepared by dispensing compounds taken up in DMSO into wells of 384 well poly D lysine-coated plates (0.2 μl/well) using an ECHO acoustic dispenser. Each compound was tested in a 10 point serial 3-fold dilution (typical final concentrations: 4.2 μM-0.21 nM). Controls included no inhibitor (DMSO only) and a combination of three antiviral agents (efavirenz, indinavir, and the integrase strand transfer inhibitor L-002254051 at final concentrations of 4 μM each). Cells were added (50 μL/well) to compound plates and the infected cells were maintained at 37° C./5% CO2/90% relative humidity.
Infected cells were quantified at two time points, ˜48 h and ˜72 h post-infection, by counting the number of green cells in each well using an Acumen eX3 scanner. The increase in the number of green cells over ˜24 h period gives the reproductive ratio, R0, which is typically 5-15 and has been shown experimentally to be in logarithmic phase (data not shown). Inhibition of R0 is calculated for each well, and IC50 value was determined using non-linear 4-parameter curve fitting.

[1] = MT4-GFP cells infected with H9IIIB or NL4-3 virus, 0% NHS (serum free conditions), read-out: VIKING IP (nM) with 0% NHS
[2] = MT4-GFP cells infected with H9IIIB or NL4-3 virus, 100% normal human serum, read-out: VIKING IP (nM) with 100% NHS
[3] = Human immunodeficiency virus 1, NL43, MT4-GFP cells infected with H9IIIB or NL4-3 virus, 0% NHS (serum free conditions), read-out: VIKING IP (nM) with 0% NHS
[4] = Human immunodeficiency virus 1, NL43, MT4-GFP cells infected with H9IIIB or NL4-3 virus, 100% normal human serum, read-out: VIKING IP (nM) with 100% NHS

SMILES | IC50 [1] [nM] | IC50 [2] [nM] | IC50 [3] [nM] | IC50 [4] [nM] | IC50 (Human immunodeficiency virus 1, NL43, read-out: VIKING IP (nM) with 0% NHS) [nM]
CN1C(=O)c2c(O)c(=O)c(C(=O)NCc3ccc(F)cc3F)cn2N(C)C12CC[C@H](P(=O)(O)O)C2 (single isomer, unassigned) [Compound 22] | 120 | 340 |  |  | 
CC(C)OC(=O)OCOP(=O)(OCOC(=O)OC(C)C)[C@H]1CCC2(C1)N(C)C(=O)c1c(O)c(=O)c(C(=O)NCc3ccc(F)cc3F)cn1N2C (single isomer, unassigned) [Compound 23] | 0.28 | 3.6 |  |  | 
CCOP(=O)(OCC)[C@H]1CCC2(C1)N(C)C(=O)c1c(O)c(=O)c(C(=O)NCc3ccc(F)cc3F)cn1N2C (single isomer, unassigned) [Compound 24] |  |  | 9.1 | 4120 | 
CN1C(=O)c2c(O)c(=O)c(C(=O)NCc3ccc(F)cc3F)cn2N(C)C12CC[C@H](P(=O)(O)O)C2 (single isomer, unassigned) [Compound 25] |  | 1070 | 190 |  | 
CC(C)OC(=O)OCOP(=O)(OCOC(=O)OC(C)C)[C@H]1CCC2(C1)N(C)C(=O)c1c(O)c(=O)c(C(=O)NCc3ccc(F)cc3F)cn1N2C (single isomer, unassigned) [Compound 26] | 1 | 35.9 |  |  | 
CCOP(=O)(OCC)[C@@H]1CCC2(C1)N(C)C(=O)c1c(O)c(=O)c(C(=O)NCc3ccc(F)cc3F)cn1N2C (single isomer, unassigned) [Compound 27] | 5.6 | 78.2 |  |  | 
CN1C(=O)c2c(O)c(=O)c(C(=O)NCc3ccc(F)cc3F)cn2N(C)C12CC[C@@H](P(=O)(O)O)C2 (single isomer, unassigned) [Compound 28] |  | 420 | 221 |  | 
CC(C)OC(=O)OCOP(=O)(OCOC(=O)OC(C)C)[C@@H]1CCC2(C1)N(C)C(=O)c1c(O)c(=O)c(C(=O)NCc3ccc(F)cc3F)cn1N2C (single isomer, unassigned) [Compound 29] | 0.2 |  |  | 4.8 | 
CCOP(=O)(OCC)[C@@H]1CCC2(C1)N(C)C(=O)c1c(O)c(=O)c(C(=O)NCc3ccc(F)cc3F)cn1N2C (single isomer, unassigned) [Compound 30] | 13.7 | 1050 |  |  | 
CN1C(=O)c2c(O)c(=O)c(C(=O)NCc3ccc(F)cc3F)cn2N(C)C12CC[C@@H](P(=O)(O)O)C2 (single isomer, unassigned) [Compound 31] | 206 | 1070 |  |  | 
CC(C)OC(=O)OCOP(=O)(OCOC(=O)OC(C)C)[C@@H]1CCC2(C1)N(C)C(=O)c1c(O)c(=O)c(C(=O)NCc3ccc(F)cc3F)cn1N2C (single isomer, unassigned) [Compound 32] | 0.9 | 7 |  |  | 
CCOP(=O)(CCN1n2cc(C(=O)NCc3ccc(F)cc3F)c(=O)c(O)c2C(=O)N(C)C12CCCC2)OCC [Compound 2] |  |  | 2.8 | 81.1 | 
CN1C(=O)c2c(O)c(=O)c(C(=O)NCc3ccc(F)cc3F)cn2N(CCP(=O)(O)O)C12CCCC2 [Compound 4] |  |  | 32.2 | 2750 | 
CC(C)OC(=O)OCOP(=O)(CCN1n2cc(C(=O)NCc3ccc(F)cc3F)c(=O)c(O)c2C(=O)N(C)C12CCCC2)OCOC(=O)OC(C)C [Compound 7] |  |  | 0.2 | 2.1 | 
CC(C)OC(=O)OCOP(=O)(O)CCN1n2cc(C(=O)NCc3ccc(F)cc3F)c(=O)c(O)c2C(=O)N(C)C12CCCC2 [Compound 8] |  |  | 2.3 | 660 | 
CCN1C(=O)c2c(O)c(=O)c(C(=O)NCc3ccc(F)cc3F)cn2N(CCP(=O)(N[C@@H](C)C(=O)OC(C)C)Oc2ccccc2)C12CCCC2 (stereo partly shown) [Compound 9] |  |  |  |  | 3.8
CCOP(=O)(OCC)[C@H]1CCC2(C1)N(C)C(=O)c1c(O)c(=O)c(C(=O)NCc3ccc(F)cc3F)cn1N2C (stereo partly shown) [Compound 21] |  |  | 5.3 | 32.7 | 
CCOP(=O)(CCN1n2cc(C(=O)NCc3ccc(F)cc3F)c(=O)c(O)c2C(=O)N(CC)C12CCCC2)OCC [Compound 33] |  |  | 4.4 | 163 | 
CCN1C(=O)c2c(O)c(=O)c(C(=O)NCc3ccc(F)cc3F)cn2N(CCP(=O)(O)O)C12CCCC2 [Compound 34] |  |  | 15.4 | 2490 | 
CCOP(=O)(OCC)C1CCC2(C1)N(CC)C(=O)c1c(O)c(=O)c(C(=O)NCc3ccc(F)cc3F)cn1N2C (stereo not shown) [Compound 35] |  |  | 9.4 | 126 | 
CCN1C(=O)c2c(O)c(=O)c(C(=O)NCc3ccc(F)cc3F)cn2N(C)C12CCC(P(=O)(O)O)C2 (stereo not shown) [Compound 36] |  |  | 187 | 583 | 
CCN1C(=O)c2c(O)c(=O)c(C(=O)NCc3ccc(F)cc3F)cn2N(C)C12CCC(P(=O)(OCOC(=O)OC(C)C)OCOC(=O)OC(C)C)C2 (stereo not shown) [Compound 37] |  |  | 0.2 | 2.8 | 
